The text below walks through data of ChEMBL document CHEMBL5465560, “Selectivity Literature for EUbOPEN Chemogenomic Library” (2024).

In data set [1] the target is MAP kinase-activated protein kinase 3 (Homo sapiens) (UniProt Q16644). The data set can be described thus: Selectivity interaction (Upstate Kinase Profiler service (Millipore)) EUB0000056c MAPKAPK3. The settings on record: at 1 µM.
Data set [2] addresses Myosin light chain kinase, smooth muscle (Homo sapiens, UniProt Q15746). The data set can be described thus: Selectivity interaction (Upstate Kinase Profiler service (Millipore)) EUB0000056c MYLK. The settings on record: at 1 µM.
The target of data set [3] is T1, Ephrin type-A receptor 3 (Homo sapiens) (UniProt P29320).
T1 sequence (whole entry): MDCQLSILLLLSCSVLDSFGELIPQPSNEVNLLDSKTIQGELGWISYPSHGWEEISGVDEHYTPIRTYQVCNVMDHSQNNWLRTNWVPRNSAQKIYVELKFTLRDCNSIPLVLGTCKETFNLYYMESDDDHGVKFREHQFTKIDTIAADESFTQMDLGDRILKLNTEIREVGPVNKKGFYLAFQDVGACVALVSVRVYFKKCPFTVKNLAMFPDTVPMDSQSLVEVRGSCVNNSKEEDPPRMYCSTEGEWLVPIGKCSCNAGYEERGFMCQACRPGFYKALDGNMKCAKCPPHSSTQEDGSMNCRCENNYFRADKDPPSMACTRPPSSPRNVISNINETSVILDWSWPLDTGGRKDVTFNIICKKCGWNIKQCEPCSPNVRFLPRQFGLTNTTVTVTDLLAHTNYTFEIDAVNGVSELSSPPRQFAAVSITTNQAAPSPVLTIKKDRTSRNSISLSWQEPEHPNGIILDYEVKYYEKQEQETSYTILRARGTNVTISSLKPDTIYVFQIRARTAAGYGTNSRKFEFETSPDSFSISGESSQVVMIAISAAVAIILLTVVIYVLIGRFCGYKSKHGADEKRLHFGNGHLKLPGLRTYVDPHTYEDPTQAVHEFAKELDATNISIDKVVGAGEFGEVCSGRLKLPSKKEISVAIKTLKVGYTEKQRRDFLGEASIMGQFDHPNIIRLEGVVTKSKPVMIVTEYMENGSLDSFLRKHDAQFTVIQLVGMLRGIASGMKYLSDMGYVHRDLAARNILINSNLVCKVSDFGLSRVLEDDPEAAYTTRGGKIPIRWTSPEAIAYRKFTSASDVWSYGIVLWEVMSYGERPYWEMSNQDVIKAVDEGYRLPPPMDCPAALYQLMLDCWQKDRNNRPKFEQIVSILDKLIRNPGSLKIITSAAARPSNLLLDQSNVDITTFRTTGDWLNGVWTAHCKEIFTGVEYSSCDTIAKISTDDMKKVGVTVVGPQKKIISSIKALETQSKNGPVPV
To be noted: at 10 µM.

For data set [4], the target named is Tyrosine-protein kinase JAK1 (Homo sapiens, UniProt P23458). The data set can be described thus: Selectivity interaction (KinomeScan (DiscoverX)) EUB0001079a JAK1. To be noted: at 1 µM.
Data set [5] has as its target T2, Mitogen-activated protein kinase kinase kinase 7 (Homo sapiens) (UniProt O43318).
T2 sequence (whole entry): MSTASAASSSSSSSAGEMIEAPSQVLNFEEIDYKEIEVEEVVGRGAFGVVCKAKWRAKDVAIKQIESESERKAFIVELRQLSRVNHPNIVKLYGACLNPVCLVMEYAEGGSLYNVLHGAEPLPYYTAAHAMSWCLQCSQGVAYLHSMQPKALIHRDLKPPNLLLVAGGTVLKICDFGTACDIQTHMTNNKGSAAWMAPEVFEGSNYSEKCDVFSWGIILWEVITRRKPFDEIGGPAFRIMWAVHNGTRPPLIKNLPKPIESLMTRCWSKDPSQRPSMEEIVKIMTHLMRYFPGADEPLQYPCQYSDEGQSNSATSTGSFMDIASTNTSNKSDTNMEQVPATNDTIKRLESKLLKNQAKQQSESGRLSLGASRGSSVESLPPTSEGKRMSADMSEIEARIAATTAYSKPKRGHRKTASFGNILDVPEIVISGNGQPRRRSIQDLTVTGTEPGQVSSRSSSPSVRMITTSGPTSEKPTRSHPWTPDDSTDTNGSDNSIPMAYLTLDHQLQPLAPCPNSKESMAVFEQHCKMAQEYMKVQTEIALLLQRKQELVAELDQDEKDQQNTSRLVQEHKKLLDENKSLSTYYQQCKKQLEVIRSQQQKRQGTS
Kind of data set: Selectivity interaction (KinomeScan (DiscoverX)) EUB0000695a MAP3K7. The settings on record: at 100 nM.

For data set [6], the target named is L-type calcium channel Cav1.2 (CACNA1C) (Homo sapiens, UniProt Q13936). The data set can be described thus: Selectivity interaction (Eurofins CEREP Diversity Profile (receptors and ion channels)) EUB0000279b CACNA1C. To be noted: at 10 µM, read-out: % of control.
Data set [7] concerns the target Tyrosine-protein kinase ABL1 (Homo sapiens, UniProt P00519). Kind of data set: Selectivity interaction (Kinase panel (DSF assay)) EUB0001559a ABL1. A general note: Differential scanning fluorimetry follows unfolding on heating by fluorescence.
In data set [8] the target is Tyrosine-protein kinase BTK (Homo sapiens, UniProt Q06187). The data set can be described thus: Selectivity interaction (Kinase panel (literature)) EUB0001199aCl BTK. To be noted: at 1 µM.
Chain of Tyrosine-protein kinase BTK (Q06187 whole entry): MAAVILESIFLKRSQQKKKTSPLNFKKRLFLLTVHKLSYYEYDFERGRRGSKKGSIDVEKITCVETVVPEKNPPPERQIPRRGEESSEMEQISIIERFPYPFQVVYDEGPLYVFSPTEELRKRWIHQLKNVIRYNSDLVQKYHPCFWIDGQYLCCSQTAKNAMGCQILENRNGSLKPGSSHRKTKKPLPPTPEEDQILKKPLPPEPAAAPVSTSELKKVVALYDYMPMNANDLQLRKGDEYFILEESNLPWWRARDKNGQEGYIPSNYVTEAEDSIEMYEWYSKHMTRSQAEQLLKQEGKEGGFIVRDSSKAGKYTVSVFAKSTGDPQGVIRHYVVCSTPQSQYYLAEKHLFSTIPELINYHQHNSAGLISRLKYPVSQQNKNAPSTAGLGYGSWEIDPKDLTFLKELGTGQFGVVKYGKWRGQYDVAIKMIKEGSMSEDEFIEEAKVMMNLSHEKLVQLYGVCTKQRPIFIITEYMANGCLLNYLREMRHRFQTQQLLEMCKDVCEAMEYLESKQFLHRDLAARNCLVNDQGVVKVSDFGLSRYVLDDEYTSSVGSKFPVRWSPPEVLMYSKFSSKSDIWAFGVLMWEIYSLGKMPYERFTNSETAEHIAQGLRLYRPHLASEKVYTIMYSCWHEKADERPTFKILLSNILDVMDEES

Chain of MAP kinase-activated protein kinase 3 (Homo sapiens) (Q16644 whole entry, looked up): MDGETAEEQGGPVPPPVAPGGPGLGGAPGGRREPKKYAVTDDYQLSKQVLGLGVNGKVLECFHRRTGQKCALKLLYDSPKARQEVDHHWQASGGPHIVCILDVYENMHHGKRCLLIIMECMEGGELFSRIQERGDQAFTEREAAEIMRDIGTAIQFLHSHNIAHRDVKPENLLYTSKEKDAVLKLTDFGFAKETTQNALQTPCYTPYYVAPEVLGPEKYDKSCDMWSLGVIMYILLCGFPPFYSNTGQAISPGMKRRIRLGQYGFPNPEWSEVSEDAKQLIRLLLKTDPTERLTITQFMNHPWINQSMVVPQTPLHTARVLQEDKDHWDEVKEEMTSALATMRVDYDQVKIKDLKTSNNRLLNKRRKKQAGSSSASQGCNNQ
Chain of Tyrosine-protein kinase ABL1 (P00519 whole entry): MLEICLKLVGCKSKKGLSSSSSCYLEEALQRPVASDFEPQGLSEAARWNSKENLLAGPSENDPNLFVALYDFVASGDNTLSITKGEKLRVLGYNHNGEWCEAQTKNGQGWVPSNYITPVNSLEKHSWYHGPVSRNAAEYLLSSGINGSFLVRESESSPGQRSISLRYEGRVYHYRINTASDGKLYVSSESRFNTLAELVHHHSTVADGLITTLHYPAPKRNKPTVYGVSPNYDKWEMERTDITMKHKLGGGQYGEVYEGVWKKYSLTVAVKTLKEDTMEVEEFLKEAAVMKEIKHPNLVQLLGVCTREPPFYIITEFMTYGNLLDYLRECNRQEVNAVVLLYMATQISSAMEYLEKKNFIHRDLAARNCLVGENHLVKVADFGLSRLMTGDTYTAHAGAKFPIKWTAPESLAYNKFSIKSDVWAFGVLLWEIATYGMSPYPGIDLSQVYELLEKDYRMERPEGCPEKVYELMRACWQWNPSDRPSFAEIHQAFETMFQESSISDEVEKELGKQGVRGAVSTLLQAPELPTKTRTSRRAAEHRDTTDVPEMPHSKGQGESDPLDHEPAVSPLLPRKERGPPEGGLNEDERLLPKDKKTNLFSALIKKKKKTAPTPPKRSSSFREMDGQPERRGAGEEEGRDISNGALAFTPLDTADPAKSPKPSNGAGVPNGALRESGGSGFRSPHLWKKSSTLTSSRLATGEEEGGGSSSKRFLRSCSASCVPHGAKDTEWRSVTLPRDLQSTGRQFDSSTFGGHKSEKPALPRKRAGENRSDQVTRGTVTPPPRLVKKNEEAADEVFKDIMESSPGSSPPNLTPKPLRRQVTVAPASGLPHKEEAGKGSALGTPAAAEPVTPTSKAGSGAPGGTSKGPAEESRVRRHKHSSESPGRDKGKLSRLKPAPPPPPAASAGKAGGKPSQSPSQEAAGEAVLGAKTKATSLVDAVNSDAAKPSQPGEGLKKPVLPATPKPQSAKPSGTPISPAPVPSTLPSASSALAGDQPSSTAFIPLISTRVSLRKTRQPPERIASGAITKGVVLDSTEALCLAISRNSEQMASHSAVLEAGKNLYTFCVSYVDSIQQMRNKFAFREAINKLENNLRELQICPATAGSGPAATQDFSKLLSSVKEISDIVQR
Chain of Tyrosine-protein kinase JAK1 (P23458 whole entry): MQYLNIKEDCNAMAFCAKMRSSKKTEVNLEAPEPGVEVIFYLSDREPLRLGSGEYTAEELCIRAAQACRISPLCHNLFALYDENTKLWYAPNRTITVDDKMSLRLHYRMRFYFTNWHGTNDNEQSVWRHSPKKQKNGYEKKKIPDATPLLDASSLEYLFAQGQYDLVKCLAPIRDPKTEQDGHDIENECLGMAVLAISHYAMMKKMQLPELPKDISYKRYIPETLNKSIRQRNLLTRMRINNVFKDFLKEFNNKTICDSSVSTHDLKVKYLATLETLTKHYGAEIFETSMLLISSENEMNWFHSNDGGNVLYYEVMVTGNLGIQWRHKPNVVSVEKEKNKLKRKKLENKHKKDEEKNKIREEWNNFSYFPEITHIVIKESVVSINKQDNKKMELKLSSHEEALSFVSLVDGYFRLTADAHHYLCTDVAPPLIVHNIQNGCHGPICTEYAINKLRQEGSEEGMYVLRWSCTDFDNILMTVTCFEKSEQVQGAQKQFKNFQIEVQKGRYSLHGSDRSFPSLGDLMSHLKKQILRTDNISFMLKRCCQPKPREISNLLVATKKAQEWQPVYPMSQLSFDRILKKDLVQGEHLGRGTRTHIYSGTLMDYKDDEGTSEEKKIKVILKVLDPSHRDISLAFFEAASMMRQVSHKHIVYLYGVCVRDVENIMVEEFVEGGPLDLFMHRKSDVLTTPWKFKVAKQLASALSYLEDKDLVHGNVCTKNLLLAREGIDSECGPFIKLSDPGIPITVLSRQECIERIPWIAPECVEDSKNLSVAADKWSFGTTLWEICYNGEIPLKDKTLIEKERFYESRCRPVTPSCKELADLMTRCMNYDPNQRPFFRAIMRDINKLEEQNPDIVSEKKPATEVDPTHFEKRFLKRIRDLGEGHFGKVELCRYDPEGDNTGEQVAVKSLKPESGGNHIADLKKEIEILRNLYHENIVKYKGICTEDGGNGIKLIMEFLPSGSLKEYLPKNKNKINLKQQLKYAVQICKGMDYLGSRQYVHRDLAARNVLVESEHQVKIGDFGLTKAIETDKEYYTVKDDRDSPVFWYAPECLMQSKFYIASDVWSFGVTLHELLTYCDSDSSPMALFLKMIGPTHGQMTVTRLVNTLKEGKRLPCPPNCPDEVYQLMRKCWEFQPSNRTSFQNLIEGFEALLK

Take `Cc1ccc(-c2ccc3c(ccc4sc5c(c43)NC[C@@H](C)NC5=O)n2)cn1`: the results for the % of inhibition in data set [1] and in data set [2] were 89% and 1%, respectively.

For `CCN(CC)CCCCNc1ncc2cc(-c3cc(OC)cc(OC)c3)c(NC(=O)NC(C)(C)C)nc2n1`, in data set [3], the % of control came to 100%.

`Nc1cnc(N2CCc3cc(S(=O)(=O)Nc4c(F)cc(Cl)cc4F)cc(N4CCCC4=O)c32)nc1` [TP-020n] displayed a % of control in data set [4] of 100%.

For the compound `Cc1cc(F)c(C(=O)Nc2cccc(-c3nncn3C(C)C)n2)cc1-n1cnc(C2CC2)c1`, the % of control in data set [5] is 81%.

In the case of `CC(=O)c1cc(-c2ccccc2OCC2CC2)c2ncccn12`, the activity in data set [6] is 89%.

Compound `CN(C(=O)c1cnn2cccnc12)c1cc2c(cc1N1CCOCC1)C(=O)N(C[C@@H](F)C(C)(C)O)C2` registered a dTM in data set [7] of 0.6 K.

For `CN1Cc2nccc(-c3cn(C)nc3-c3ccc(F)cc3)c2C1=O`, the % of inhibition in data set [8] came to 2%.
